According to patent publication US10195197B2, “Combination therapy with glutaminase inhibitors” (Calithera Biosciences, Inc., priority 2016, dated 2019):

Test system: JIMT-1 tumors
Assay: JIMT-1 xenograft model, antitumor efficacy (in vivo TNBC model)
Settings: single agent paclitaxel, five doses at 10 mg/kg every other day at start of study; initial regression followed by rapid regrowth; P=0.0002
Description: In the JIMT-1 xenograft model, the antitumor efficacy was evaluated by treating established tumors (125 mm^3 at the start of dosing) with CB-839 both as a single agent and in combination with paclitaxel, a standard-of-care chemotherapeutic agent for the treatment of TNBC. The regimen for paclitaxel (five doses at 10 mg/kg delivered every other day at the start of study) was chosen to provide suboptimal efficacy to ensure a window to evaluate the potential impact of combination treatment.

SMILES: CC(=O)O[C@H]1C(=O)[C@@]2(C)[C@H]([C@H](OC(=O)c3ccccc3)[C@]3(O)C[C@H](OC(=O)[C@H](O)[C@@H](NC(=O)c4ccccc4)c4ccccc4)C(C)=C1C3(C)C)[C@]1(OC(C)=O)CO[C@@H]1C[C@@H]2O [paclitaxel]
- TGI relative to vehicle control at the end of study: 73%
